Measured values as given in ChEMBL document CHEMBL1201862, “PubChem BioAssay data set” (2004).
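Briefly, cells in 96-well plates were exposed to five compound concentrations for 48 h, and endpoints were estimated by linear interpolation. The concentration for 50% growth inhibition is given as GI50.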 Activity calls are given as the source filed them. Cut-off read from the data, not from the text of the source: active = GI50 up to about 1.1 µM and inactive = higher.

Columns and labels:
Experiment in all cases: NCI anticancer screen, dose series, 48 h
786-0 = system: 786-0
A498 = system: A498
BT-549 = system: BT-549
CAKI-1 = system: CAKI-1
Hs-578T = system: Hs-578T
IGROV-1 = system: IGROV-1
K562 = system: K562
KM12 = system: KM12
MDA-MB-435 = system: MDA-MB-435
MDA-N = system: MDA-N
MOLT-4 = system: MOLT-4
NCI-H522 = system: NCI-H522
OVCAR-3 = system: OVCAR-3
OVCAR-4 = system: OVCAR-4
RXF 393 = system: RXF 393
SF-295 = system: SF-295
SK-MEL-2 = system: SK-MEL-2
SN12C = system: SN12C
TK-10 = system: TK-10

Measured: GI50

CCCCc1ccc(Nc2nc(Cl)c3ccn(C4CC(Oc5ccc(C)cc5)C(COc5ccc(C)cc5)O4)c3n2)cc1 (configuration not stated)
inactive: 786-0 > 46.5 µM | A498 > 46.5 µM | BT-549 12.6 µM | CAKI-1 > 46.5 µM | Hs-578T > 100 µM | IGROV-1 22.9 µM | K562 > 46.5 µM | KM12 > 46.5 µM | MDA-MB-435 > 46.5 µM | MDA-N > 46.5 µM | MOLT-4 > 46.5 µM | NCI-H522 22.4 µM | OVCAR-3 > 100 µM | OVCAR-4 > 31.6 µM | RXF 393 > 46.5 µM | SF-295 > 46.5 µM | SK-MEL-2 > 46.5 µM | SN12C > 46.5 µM | TK-10 30.3 µM

CC(C)(CO)CNc1nc(N)nc(Cl)c1/C=N/O
inactive: 786-0 36.7 µM | A498 23.9 µM | BT-549 23.6 µM | CAKI-1 23.8 µM | Hs-578T 27 µM | IGROV-1 13 µM | K562 13.9 µM | KM12 84.5 µM | MDA-MB-435 43.9 µM | MDA-N 41.2 µM | MOLT-4 17 µM | NCI-H522 25.8 µM | OVCAR-3 23 µM | OVCAR-4 34 µM | RXF 393 22.2 µM | SF-295 14.1 µM | SK-MEL-2 39.7 µM | SN12C 72.4 µM | TK-10 35 µM

C=C(C)C(=O)O[C@H]1C[C@@]23O[C@@H]2CCC(=C[C@H]2OC(=O)C(=C)[C@H]12)COC3O (some centres not stated)
inactive: 786-0 35.3 µM | A498 > 100 µM | BT-549 37.1 µM | CAKI-1 > 100 µM | Hs-578T > 100 µM | IGROV-1 > 100 µM | K562 20.2 µM | KM12 > 100 µM | MDA-MB-435 44.3 µM | MDA-N 49.2 µM | MOLT-4 28.7 µM | NCI-H522 14.4 µM | OVCAR-3 49.5 µM | OVCAR-4 > 100 µM | RXF 393 25.1 µM | SF-295 > 100 µM | SK-MEL-2 70.3 µM | SN12C 49 µM | TK-10 > 100 µM

c1cc2nnc1SCCCSc1ccc(nn1)SCCCS2
inactive: 786-0 24.2 µM | A498 97.7 µM | BT-549 19.9 µM | CAKI-1 > 45.4 µM | Hs-578T 26.5 µM | IGROV-1 > 36.7 µM | K562 > 27.9 µM | KM12 > 35.6 µM | MDA-MB-435 > 40.6 µM | MDA-N > 29.9 µM | MOLT-4 > 20.8 µM | NCI-H522 > 100 µM | OVCAR-3 > 43.2 µM | OVCAR-4 16.1 µM | RXF 393 12.9 µM | SF-295 20.5 µM | SK-MEL-2 24.7 µM | SN12C > 35.8 µM | TK-10 35.5 µM

COCOC1/C=C/CCCC#C[C@H](C)C(=O)CC1 (some centres not stated)
inactive: 786-0 4.21 µM | A498 12.1 µM | BT-549 12.6 µM | CAKI-1 11.5 µM | Hs-578T 15.5 µM | IGROV-1 9.27 µM | K562 2.7 µM | KM12 4.85 µM | MDA-MB-435 7 µM | MDA-N 11.4 µM | MOLT-4 2.96 µM | NCI-H522 5.7 µM | OVCAR-3 6.12 µM | OVCAR-4 7.83 µM | RXF 393 8.41 µM | SF-295 16.3 µM | SK-MEL-2 15 µM | SN12C 11.2 µM | TK-10 15.2 µM

c1ccc(C2CC(N3CCOCC3)=Nc3ccccc3N2)cc1 (configuration not stated)
inactive: 786-0 > 100 µM | A498 > 100 µM | BT-549 > 100 µM | CAKI-1 > 100 µM | Hs-578T > 100 µM | IGROV-1 93.8 µM | K562 58.2 µM | KM12 > 100 µM | MDA-MB-435 54.3 µM | MDA-N > 100 µM | MOLT-4 70.6 µM | NCI-H522 > 100 µM | OVCAR-3 > 100 µM | OVCAR-4 > 100 µM | RXF 393 78.5 µM | SF-295 > 100 µM | SK-MEL-2 > 100 µM | SN12C > 100 µM | TK-10 > 100 µM

Oc1ccc(/C=N/CC2CCCN3CCCCC23)cc1 (configuration not stated)
inactive: 786-0 17.9 µM | A498 26.5 µM | BT-549 21.3 µM | CAKI-1 17.8 µM | Hs-578T 33.1 µM | IGROV-1 24.2 µM | K562 43.3 µM | KM12 16.4 µM | MDA-MB-435 14.1 µM | MDA-N 18.4 µM | MOLT-4 27.4 µM | NCI-H522 17.9 µM | OVCAR-3 29.4 µM | OVCAR-4 17.8 µM | RXF 393 20 µM | SF-295 26.1 µM | SK-MEL-2 19.5 µM | SN12C 19.1 µM | TK-10 23.4 µM

CCN1CCC(CNC(=O)c2ccc(N)cc2)N1CC (configuration not stated)
inactive: 786-0 > 100 µM | A498 > 100 µM | BT-549 > 100 µM | CAKI-1 > 100 µM | Hs-578T > 100 µM | IGROV-1 > 100 µM | K562 > 100 µM | KM12 > 100 µM | MDA-MB-435 > 100 µM | MDA-N > 100 µM | MOLT-4 > 100 µM | NCI-H522 > 100 µM | OVCAR-3 > 100 µM | OVCAR-4 > 100 µM | RXF 393 > 100 µM | SF-295 > 100 µM | SK-MEL-2 > 100 µM | SN12C > 100 µM | TK-10 > 100 µM
